Assay results published in publication PMC8349443 (Journal of the Indian Chemical Society, 2021).

Assays:
SARS-CoV-2 virus = test: Antiviral potentiality against SARS-CoV-2; assay type: cell-based; settings: isolate of SARS-CoV-2
[1] = system: plasma C-Reactive Protein (CRP) and procalcitonin; settings: ref [7], [8], [9]; cited from earlier work

N[C@@H](CC(=O)N1CCn2c(nnc2C(F)(F)F)C1)Cc1cc(F)c(F)cc1F [SIT, Sitagliptin]
antiviral activity against SARS-CoV-2 in words (SARS-CoV-2 virus): have antiviral activity against an isolate of SARS-CoV-2
possible immuno-modulatory effect: plasma CRP and procalcitonin [1]: plasma C-Reactive Protein (CRP) and procalcitonin reduction
